Data published in ChEMBL document CHEMBL2062501 (ACS Med Chem Lett, 2012).
pIC50, pKi: −log10 of the molar value.

Legend:
marmosets [1] = assay: Antimigraine activity in marmosets assessed as inhibition of human alphaCGRP-induced increase in facial blood flow at 7 mg/kg, sc measured after 60 mins by laser Doppler flowmetry; format: functional; conditions: Callitrichinae sp., 1 h, route subcutaneous
marmosets [2] = assay: Antimigraine activity in marmosets assessed as inhibition of human alphaCGRP-induced increase in facial blood flow at 7 mg/kg, sc measured after 105 mins by laser Doppler flowmetry; format: functional; conditions: Callitrichinae sp., 1.75 h, route subcutaneous
[3] = molecular target: T1, Calcitonin gene-related peptide type 1 receptor (Homo sapiens, UniProt O60894+Q16602); assay: Displacement of [125I]-CGRP from CGRP receptor in human SK-N-MC cells; format: cell-based
[4] = molecular target: T1, Calcitonin gene-related peptide type 1 receptor; assay: Antagonist activity at CGRP receptor in human SK-N-MC cells assessed as inhibition of CGRP-stimulated cAMP production; format: functional, cell-based
[5] = Permeability of the compound at pH 5.5 by PAMPA; format: ADME; conditions: read-out: permeability
[6] = Permeability of the compound at pH 7.4 by PAMPA; format: ADME; conditions: read-out: permeability
[7] = Oral bioavailability in rat at 10 mg/kg; format: ADME, organism-based; conditions: in vivo
[8] = Oral bioavailability in dog at 10 mg/kg; format: ADME, organism-based, Canis lupus familiaris; conditions: in vivo
[9] = Oral bioavailability in cynomolgus monkey at 10 mg/kg; format: ADME, organism-based, Macaca fascicularis; conditions: in vivo
[10] = Metabolic stability of the compound in human liver microsomes assessed as compound remaining at 0.5 uM after 10 mins; format: ADME, Microsome; conditions: read-out: Stability
[11] = Half life in human liver microsomes at 0.5 uM; format: ADME, Microsome
[12] = Plasma concentration on marmosets at 7 mg/kg, sc measured after 60 mins; format: ADME, organism-based; parameters: dose 7 mg/kg, route subcutaneous; conditions: callitrichinae sp.
[13] = Plasma concentration on marmosets at 7 mg/kg, sc measured after 105 mins; format: ADME, organism-based; parameters: dose 7 mg/kg, route subcutaneous; conditions: callitrichinae sp.
marmosets [14] = assay: Antimigraine activity in marmosets assessed as inhibition of alphaCGRP-induced increase in facial blood flow at 10 mg/kg, po by laser Doppler flowmetry; format: functional; conditions: Callitrichinae sp., in Callithrix jacchus

T1 sequence (Q16602 whole entry, one chain of several): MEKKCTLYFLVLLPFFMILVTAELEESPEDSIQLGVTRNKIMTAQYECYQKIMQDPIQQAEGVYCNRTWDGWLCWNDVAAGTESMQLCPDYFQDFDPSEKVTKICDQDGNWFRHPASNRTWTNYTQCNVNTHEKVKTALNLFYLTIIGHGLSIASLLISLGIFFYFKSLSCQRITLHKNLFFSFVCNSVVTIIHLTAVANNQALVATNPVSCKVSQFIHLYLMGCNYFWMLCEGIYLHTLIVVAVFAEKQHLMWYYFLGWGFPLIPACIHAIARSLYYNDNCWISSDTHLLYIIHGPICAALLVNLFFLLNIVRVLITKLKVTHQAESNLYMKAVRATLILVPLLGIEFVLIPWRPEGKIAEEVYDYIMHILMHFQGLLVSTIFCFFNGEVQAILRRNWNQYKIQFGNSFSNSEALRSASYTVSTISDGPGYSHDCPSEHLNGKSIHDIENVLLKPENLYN

pKi [3]	pIC50 [4]	Papp [5]	Papp [6]	bioavailability [7]	bioavailability [8]	bioavailability [9]	remaining at 10 min, 0.5 µM [10]	half-life at 0.5 µM [11]	concentration at 1 h [12]	concentration at 1.75 h [13]	Structure (SMILES)	inhibition in vivo at 7 mg/kg (marmosets [1])	inhibition in vivo at 7 mg/kg (marmosets [2])	inhibition in vivo at 10 mg/kg (marmosets [14])
10.15	9.66	150 ×10⁻⁶ cm/s	88 ×10⁻⁶ cm/s	29%	34%	38%	74%	24 min	> 1000 nM	> 1500 nM	O=C(O[C@@H]1CC[C@@H](c2cccc(F)c2F)Cc2cccnc21)N1CCC(n2c(=O)[nH]c3ncccc32)CC1	52%	52%	–
6.03	–	–	–	–	–	–	–	–	–	–	O=C(O[C@H]1CC[C@H](c2cccc(F)c2F)Cc2cccnc21)N1CCC(n2c(=O)[nH]c3ncccc32)CC1	–	–	–
10.15	–	–	–	–	–	–	–	–	–	–	Cc1cc(CC(OC(=O)N2CCC(n3c(=O)[nH]c4ncccc43)CC2)c2cc(C(=O)N(C)C)cc(Cl)n2)cc2cn[nH]c12 (racemic)	–	–	31%
